Measured values reported in the NIST ThermoML archive (doi:10.1016/j.jct.2008.10.010).
Numbers after ± are expanded uncertainties.

Assay: molar heat capacity at constant pressure; xn = mol fraction of the nth substance listed
Details: 101.3 kPa, Liquid, Small sample (50 mg) DSC

CCC(C)(C)O [2-methylbutan-2-ol] + CCCCCCC
Details | molar heat capacity at constant pressure [J/K/mol]
327.15 K, x1 = 0.1547 | 258.26 ± 4
327.15 K, x1 = 0.2993 | 269.94 ± 4.2
327.15 K, x1 = 0.4051 | 274.66 ± 4.3
327.15 K, x1 = 0.4986 | 277.47 ± 4.3
327.15 K, x1 = 0.5981 | 279.08 ± 4.3
327.15 K, x1 = 0.7015 | 280.02 ± 4.3
327.15 K, x1 = 0.8023 | 279.59 ± 4.3
327.15 K, x1 = 0.9139 | 278.56 ± 4.3
327.15 K, x1 = 0.9609 | 277.44 ± 4.3
328.15 K, x1 = 0.0061 | 236.22 ± 3.7
328.15 K, x1 = 0.0249 | 237.72 ± 3.7
328.15 K, x1 = 0.0494 | 242.15 ± 3.8
328.15 K, x1 = 0.1 | 251.24 ± 3.9
328.15 K, x1 = 0.1547 | 258.56 ± 4
328.15 K, x1 = 0.1999 | 263.19 ± 4.1
328.15 K, x1 = 0.2993 | 270.46 ± 4.2
328.15 K, x1 = 0.4051 | 275.23 ± 4.3
328.15 K, x1 = 0.4986 | 278.16 ± 4.3
328.15 K, x1 = 0.5981 | 279.9 ± 4.3
328.15 K, x1 = 0.7015 | 280.91 ± 4.3
328.15 K, x1 = 0.8023 | 280.5 ± 4.3
328.15 K, x1 = 0.9139 | 279.46 ± 4.3
328.15 K, x1 = 0.9609 | 278.39 ± 4.3
329.14 K, x1 = 0.0061 | 236.63 ± 3.7
329.14 K, x1 = 0.0249 | 238.11 ± 3.7
329.14 K, x1 = 0.0494 | 242.34 ± 3.8
329.14 K, x1 = 0.1 | 251.42 ± 3.9
329.14 K, x1 = 0.1547 | 258.8 ± 4
329.14 K, x1 = 0.1999 | 263.54 ± 4.1
329.14 K, x1 = 0.2993 | 270.92 ± 4.2
329.14 K, x1 = 0.4051 | 275.78 ± 4.3
329.14 K, x1 = 0.4986 | 278.83 ± 4.3
329.14 K, x1 = 0.5981 | 280.59 ± 4.3
329.14 K, x1 = 0.7015 | 281.67 ± 4.4
329.14 K, x1 = 0.8023 | 281.37 ± 4.4
329.14 K, x1 = 0.9139 | 280.33 ± 4.3
329.14 K, x1 = 0.9609 | 279.29 ± 4.3
330.14 K, x1 = 0.0061 | 237.14 ± 3.7
330.14 K, x1 = 0.1 | 251.61 ± 3.9
330.14 K, x1 = 0.1547 | 259.04 ± 4
330.14 K, x1 = 0.2993 | 271.42 ± 4.2
330.14 K, x1 = 0.4986 | 279.45 ± 4.3
330.14 K, x1 = 0.5981 | 281.32 ± 4.4
330.14 K, x1 = 0.7015 | 282.46 ± 4.4
330.14 K, x1 = 0.8023 | 282.14 ± 4.4
330.14 K, x1 = 0.9139 | 281.17 ± 4.4
330.14 K, x1 = 0.9609 | 280.09 ± 4.3
330.15 K, x1 = 0.0249 | 238.44 ± 3.7
330.15 K, x1 = 0.0494 | 242.58 ± 3.8
330.15 K, x1 = 0.1999 | 263.87 ± 4.1
330.15 K, x1 = 0.4051 | 276.4 ± 4.3
331.15 K, x1 = 0.0061 | 237.49 ± 3.7
331.15 K, x1 = 0.0249 | 238.7 ± 3.7
331.15 K, x1 = 0.0494 | 242.66 ± 3.8
331.15 K, x1 = 0.1 | 251.73 ± 3.9
331.15 K, x1 = 0.1547 | 259.17 ± 4
331.15 K, x1 = 0.1999 | 264.08 ± 4.1
331.15 K, x1 = 0.2993 | 271.78 ± 4.2
331.15 K, x1 = 0.4051 | 276.82 ± 4.3
331.15 K, x1 = 0.4986 | 280.03 ± 4.3
331.15 K, x1 = 0.5981 | 282 ± 4.4
331.15 K, x1 = 0.7015 | 283.13 ± 4.4
331.15 K, x1 = 0.8023 | 282.9 ± 4.4
331.15 K, x1 = 0.9139 | 281.93 ± 4.4
331.15 K, x1 = 0.9609 | 280.9 ± 4.3
332.11 K, x1 = 0.4051 | 277.29 ± 4.3
332.14 K, x1 = 0.0061 | 237.91 ± 3.7
332.14 K, x1 = 0.0249 | 239.06 ± 3.7
332.14 K, x1 = 0.0494 | 242.88 ± 3.8
332.14 K, x1 = 0.1 | 251.74 ± 3.9
332.14 K, x1 = 0.1547 | 259.34 ± 4
332.14 K, x1 = 0.1999 | 264.36 ± 4.1
332.14 K, x1 = 0.2993 | 272.13 ± 4.2
332.14 K, x1 = 0.4986 | 280.59 ± 4.3
332.14 K, x1 = 0.5981 | 282.58 ± 4.4
332.14 K, x1 = 0.7015 | 283.9 ± 4.4
332.14 K, x1 = 0.8023 | 283.62 ± 4.4
332.14 K, x1 = 0.9139 | 282.68 ± 4.4
332.14 K, x1 = 0.9609 | 281.66 ± 4.4
333.14 K, x1 = 0.0061 | 238.38 ± 3.7
333.14 K, x1 = 0.0249 | 239.45 ± 3.7
333.14 K, x1 = 0.0494 | 243.08 ± 3.8
333.14 K, x1 = 0.1 | 251.95 ± 3.9
333.14 K, x1 = 0.1547 | 259.59 ± 4
333.14 K, x1 = 0.1999 | 264.68 ± 4.1
333.14 K, x1 = 0.2993 | 272.54 ± 4.2
333.14 K, x1 = 0.4051 | 277.88 ± 4.3
333.14 K, x1 = 0.4986 | 281.17 ± 4.4
333.14 K, x1 = 0.7015 | 284.62 ± 4.4
333.14 K, x1 = 0.8023 | 284.48 ± 4.4
333.14 K, x1 = 0.9139 | 283.56 ± 4.4
333.14 K, x1 = 0.9609 | 282.52 ± 4.4
333.15 K, x1 = 0.5981 | 283.29 ± 4.4
334.04 K, x1 = 0.0249 | 239.87 ± 3.7
334.15 K, x1 = 0.0061 | 238.94 ± 3.7
334.15 K, x1 = 0.0494 | 243.42 ± 3.8
334.15 K, x1 = 0.1 | 252.08 ± 3.9
334.15 K, x1 = 0.1547 | 259.81 ± 4
334.15 K, x1 = 0.1999 | 264.99 ± 4.1
334.15 K, x1 = 0.2993 | 272.99 ± 4.2
334.15 K, x1 = 0.4051 | 278.43 ± 4.3
334.15 K, x1 = 0.4986 | 281.83 ± 4.4
334.15 K, x1 = 0.5981 | 284.02 ± 4.4
334.15 K, x1 = 0.7015 | 285.36 ± 4.4
334.15 K, x1 = 0.8023 | 285.27 ± 4.4
334.15 K, x1 = 0.9139 | 284.32 ± 4.4
334.15 K, x1 = 0.9609 | 283.36 ± 4.4
334.33 K, x1 = 0.0249 | 239.98 ± 3.7
335.14 K, x1 = 0.0061 | 239.28 ± 3.7
335.14 K, x1 = 0.0249 | 240.2 ± 3.7
335.14 K, x1 = 0.0494 | 243.54 ± 3.8
335.14 K, x1 = 0.1 | 252.23 ± 3.9
335.14 K, x1 = 0.1547 | 259.88 ± 4
335.14 K, x1 = 0.1999 | 265.1 ± 4.1
335.14 K, x1 = 0.2993 | 273.19 ± 4.2
335.14 K, x1 = 0.4051 | 278.76 ± 4.3
335.14 K, x1 = 0.4986 | 282.26 ± 4.4
335.14 K, x1 = 0.5981 | 284.55 ± 4.4
335.14 K, x1 = 0.7015 | 286 ± 4.4
335.14 K, x1 = 0.8023 | 285.89 ± 4.4
335.14 K, x1 = 0.9139 | 285.08 ± 4.4
335.14 K, x1 = 0.9609 | 284.15 ± 4.4
336.14 K, x1 = 0.0061 | 239.67 ± 3.7
336.14 K, x1 = 0.0249 | 240.6 ± 3.7
336.14 K, x1 = 0.0494 | 243.78 ± 3.8
